The source of these data is patent US10858305B2, “Perillyl alcohol-3-bromopyruvate conjugate and methods of treating cancer” (NeOnc Technologies, Inc., priority 2016, dated 2020).

Data set [1] relates to MDA-MB-231 cells. The data set is described as follows: Colony formation assay in MDA-MB-231 cells. The settings on record: Homo sapiens; MDA-MB-231, 48 hours drug then 10-14 days; read-out: effective concentration (half-maximal), CFA. It is filed as cell-based. As to the method: (A) MTT assay was performed after 24 hours. […] (B) LDH assay was performed after […]. LDH release by untreated cells was set to 1. Relative fold increase is shown (n=3).
(A) MTT assay was performed after 24 hours. Viability of untreated cells was set at 100% (data points are averages of 2 experiments). (B) LDH assay was performed after 24 hours. LDH release by untreated cells was set to 1. Relative fold increase is shown (averages from 2 experiments). (C) Representative photos show typical colony formation after initial 48 hours of drug treatment. In all cases of combination treatment with 3-BP mixed with […] (3-BP+POH), the indicated concentrations refer to each individual drugs, i.e., 100 μM 3-BP+POH means that 100 μM 3-BP was combined with 100 μM POH.
Depending on the cell line (and plating efficiency), 250-800 cells were seeded into each well of a 6-well plate and treated as described in detail previously. After 12-16 days, colonies (defined as groups of >50 cells) were visualized by staining for 4 hours with 1% methylene blue (in methanol), and then were-counted. Experiments were repeated at least once, but usually more often under different conditions.

The subject of data set [2] is MDA-MB-231 triple-negative breast cancer cells. As to the kind of experiment: Subcutaneous MDA-MB-231 xenograft in nude mice. The format is in vivo. The conditions noted are these: 5 mg/kg on days 1, 5, 9. As to the method:
The anticancer activity of NEO218 in vivo was investigated next. MDA-MB-231 triple-negative breast cancer cells were subcutaneously implanted into 12 nude mice. After two weeks, the animals were separated into 2 groups for treatment with either vehicle (no drug) or NEO218 (5 mg/kg). Then, NEO218 (or vehicle) was administered on days 1, 5, and 9 (3 doses total, 4 days apart). Tumor growth was measured with calipers every 3 days from day 1 (=start of treatment) until day 13 (end of experiment).
The panels show tumor growth over time for each individual animal.

Data set [3] concerns MDA-MB-231, T47D, T98G, U251, HCT116 and A2780 cancer cells. As to the kind of experiment: MTT assay, cell viability after 48 hours in six cancer cell lines. It is filed as cell-based, human. The source says:
The tumor cell-killing potency of NEO218 was characterized by in vitro, short-term MTT assays (measuring viability of cells via determination of metabolic activity), LDH assays (measuring the release of lactate dehydrogenase as an indicator of leaky cell membranes, which are indicative of dying cells), and colony-formation assays (CFA, which determine long-term survival of drug-treated cells and their ability to spawn a colony of descendants). Several established cell lines derived from cancers of the breast were used as target cells (including MDA-MB-231; MDA-MB-468; T47D; MCF7; MCF7/Dox; BTB12), brain (T98G; U251), ovary (A2780), and colon (HCT116). In all cases, cells in culture were exposed to increasing concentrations of agents for 24 or 48 hours.
Cell lines from different cancer types were treated with increasing concentrations of 3-bromopyruvate (3-BP) or NEO218. After 48 hours, cell viability was measured by MTT assay. MDA-MB-231 and T47D are breast cancer cells; T98G and U251 are brain cancer (glioblastoma) cells; HCT116 are colon cancer cells; A2780 are ovarian cancer cells.

Data set [4] deals with tumor cell lines. The data set is described as follows: cells. The format is cell-based, human. As to the method:
Different tumor cell lines were treated with 3-BP mixed with POH, and the effects were compared to the effects of NEO218, as well as to 3-BP alone. The cells were treated for 24 hours, and then the MTT assay was conducted to measure cell viability.

As for `O=C(O)C(=O)CBr` [3-BP, 3-bromopyruvate], the IC50 in data set [1] was roughly 130 µM.

As to `C=C(C)[C@@H]1CC=C(COC(=O)C(=O)CBr)CC1` [NEO218, 3-bromo-2-oxo-propionic acid 4-isopropenyl-cyclohex-1-enylmethyl ester], in data set [2], the “organ toxicity or other side effects” value is listed as “organ toxicity or other side effects were not detected”, the tolerability in mice entry is recorded as “tolerated this compound quite well” and the “tumor growth compared with vehicle group” value is reported as “slower tumor growth”. For the same compound, in data set [2] (day 13, all animals), the “tumor volume at the end of the experiment” value is “below 200 cubic millimeters”. In addition, the IC50 in data set [3] (Homo sapiens, all six cell lines) fell in the range of 15 to 40 µM. The “cancer cell killing effects compared with 3-BP” value in data set [3] (MTT) is “more potent cancer cell killing effects than 3-BP in all cell lines”. The “cytotoxic potency compared with the other treatments” value in data set [4] is “much more potent than any other treatment”.
